Measurements published in US12383539B2 (Cavion, Inc., priority 2018, dated 2025).

How the values were obtained:
Type in all cases: in vivo, human
[1] = system: patients with essential tremor; assay: T-CALM: TETRAS activities of daily living subscale (TETRAS-ADL); conditions: for TETRAS-ADL score (change from baseline), Mean (SD) / TETRAS-ADL score (change from baseline), Median / TETRAS-ADL score (change from baseline), Median (minimum, maximum): post-hoc
Excerpt: The sum of the individual scores provides the overall score, ranging from 0 to 48. The complete TETRAS ADL Subscale is as follows.
Rate tremor's impact on activities of daily living (0-4 scoring).
• 0=Normal. • 1=Slight voice tremulousness, only when “nervous”. • 2=Mild voice tremor. All words easily understood. • 3=Moderate voice tremor. Some words difficult to understand. • 4=Severe voice tremor. Most words difficult to understand. 2. Feeding with a Spoon • 0=Normal. • 1=Slightly abnormal. […] Spills a little. • 3=Moderately abnormal. Spills a lot or changes strategy to complete task such as using two hands or leaning over. • 4=Severely abnormal. Cannot feed with a spoon. 3. Drinking from a Glass • 0=Normal. • 1=Slightly abnormal. […] Spills a little. • 3=Moderately abnormal. Spills a lot or changes strategy to complete task such as using two, hands or leaning over. • 4=Severely abnormal. Cannot drink from a glass or uses straw or sippy cup. 4. Hygiene • 0=Normal. • 1=Slightly abnormal. […] Some difficulty but can complete task. • 3=Moderately abnormal. Unable to do most fine tasks such as putting on lipstick or shaving unless changes strategy such as using two hands or using the less affected hand. 4=Severely abnormal. Cannot complete hygiene tasks independently. 5. Dressing • 0=Normal. • 1=Slightly abnormal. […] Able to do everything but has difficulty due to tremor. • 3=Moderately abnormal. Unable to do most dressing unless changes strategy such as using Velcro, buttoning shirt before putting it on or avoiding shoes with laces. • 4=Severely abnormal. Cannot dress independently. 6. Pouring • 0=Normal. • 1=Slightly abnormal. […] Must be very careful to avoid spilling but may spill occasionally. • 3=Moderately abnormal. Must use two hands or uses other strategies to avoid spilling. • 4=Severely abnormal. Cannot pour. 7. Carrying Food Trays, Plates or Similar Items • 0=Normal. • 1=Slightly abnormal. […] Must be very careful to avoid spilling items on food tray. • 3=Moderately abnormal. Uses strategies such as holding tightly against body to carry. • 4=Severely abnormal. Cannot carry food trays or similar items. 8. Using Keys • 0=Normal. • 1=Slightly abnormal. Tremor is present but can insert key with one hand without difficulty. • 2=Mildly abnormal. Commonly misses target but still routinely puts key in lock with one hand. • 3=Moderately abnormal. Needs to use two hands or other strategies to put key in lock. • 4=Severely abnormal. Cannot put key in lock. 9. Writing • 0=Normal. • 1=Slightly abnormal. […] Difficulty writing due to tremor. • 3=Moderately abnormal. Cannot write without using strategies such as holding the writing hand with the other hand, holding pen differently or using large pen. • 4=Severely abnormal. Cannot write. 10. Working. If Patient is Retired, Ask as if they were Still Working. If the Patient is a Housewife, Ask the Question as it Relates to Housework: • 0=Normal. • 1=Slightly abnormal. […] Tremor interferes with work; able to do everything, but with errors. • 3=Moderately abnormal. Unable to continue working without using strategies such as changing jobs or using special equipment. • 4=Severely abnormal. Cannot perform any job or household work. 11. Overall Disability with the Most Affect Task (Name Task, e.g. Using Computer Mouse, Writing, Etc.) • Task ______ • 0=Normal. • 1=Slightly abnormal. […] Tremor interferes with task but still able to perform task. • 3=Moderately abnormal. Can do task but must use strategies. • 4=Severely abnormal. Cannot do the task. 12.
Analyses of the TETRAS-ADL was conducted using the same type of ANCOVA model as described for the TETRAS-PS, using two-sided tests at the alpha=0.05 level of significance (FIG. 2 and Table 2).

[2] = system: patients with essential tremor; assay: T-CALM: Clinical Global Impression of Improvement (CGI-I)
Excerpt: The Clinical Global Impressions Scale (CGI) was developed for use in NIMH-sponsored clinical trials to provide a brief, stand-alone assessment of the clinician's view of a patient's global functioning before and after initiating a study medication (Guy (ed.), ECDEU Assessment Manual for Psychopharmacology. Rockville, MD: US Department of Health, Education, and Welfare Public Health Service Alcohol, Drug Abuse, and Mental Health Administration; 1976). The CGI is a summary measure that takes into account all available information, including knowledge of the patient's history, psychosocial circumstances, symptoms, behavior, and the impact of the symptoms on the patient's ability to function. The CGI has two forms—the CGI-Severity, which rates illness severity at baseline, and the CGI-Improvement, which rates change from baseline.
The CGI-I consists of a single 7-point rating of total improvement or change from baseline CGI-S, regardless of whether or not the change is due entirely to drug treatment.
Treatment success as measured by CGI-I was summarized using descriptive statistics.
The Clinical Global Impressions Scale (CGI) generates a clinician's perception of a patient's functioning prior to and after study medication (see, e.g., Guy, Assessment Manual for Psychopharmacology. Rockville, MD: Department of Health, Education, and Welfare Public Health Service Alcohol, Drug Abuse, and Mental Health Administration, 1976). The CGI overall score considers patient history, psychosocial situations, symptoms and behavior with respect to the ability to function. The CGI-Improvement (CGI-I) will involve a single 7-point rating of total improvement or change from baseline CGI-Severity (CGI-S).

[3] = system: patients with essential tremor; assay: PK/PD: Cmin exposure of CX-8998 vs change in TETRAS-PS (Hill equation); conditions: steady state
Excerpt: Pharmacodynamic variables (Response) evaluated included change from baseline in TETRAS performance subscale, TETRAS activities of daily living, TETRAS total score.

[4] = patients Minimally Improved by CGI-I, Day 15
[5] = patients Minimally Improved by CGI-I, Day 28
[6] = patients Minimally Improved by PGIC, Day 15
[7] = patients Minimally Improved by PGIC, Day 28

## CC(C)c1ccc(CC(=O)N[C@H](C)c2ccc(OCC(F)(F)F)cn2)cc1 [CX-8998]
[1]; Day 15
  responders: improvement of at least 5 points by TETRAS-ADL score, %: (46.2%)
[1]; Day 15, N 39
  responders: improvement of at least 5 points by TETRAS-ADL score, number: 18
[1]; Day 15, N = 39
  TETRAS-ADL change from baseline 0 change: subjects, number (%): 2 (5.1%)
  TETRAS-ADL change from baseline >0 to 1 point improvement: subjects, number (%): 5 (12.8%)
  TETRAS-ADL change from baseline >0 to 1 point worsening: subjects, number (%): 1 (2.6%)
  TETRAS-ADL change from baseline >1 to 2.5 point improvement: subjects, number (%): 2 (5.1%)
  TETRAS-ADL change from baseline >1 to 2.5 point worsening: subjects, number (%): 3 (7.7%)
  TETRAS-ADL change from baseline >2.5 to 5 point improvement: subjects, number (%): 7 (17.9%)
  TETRAS-ADL change from baseline >2.5 to 5 point worsening: subjects, number (%): 3 (7.7%)
  TETRAS-ADL change from baseline >5 to 10 point improvement: subjects, number (%): 11 (28.2%)
  TETRAS-ADL change from baseline >5 to 10 point worsening: subjects, number (%): 0
  TETRAS-ADL change from baseline >10 point improvement: subjects, number (%): 5 (12.8%)
  TETRAS-ADL change from baseline >10 point worsening: subjects, number (%): 0
[1]; Day 28
  responders: improvement of at least 5 points by TETRAS-ADL score, %: (29.7%)
[1]; Day 28, N 37
  responders: improvement of at least 5 points by TETRAS-ADL score, number: 11
[1]; Day 28, N = 37
  TETRAS-ADL change from baseline 0 change: subjects, number (%): 5 (13.5%)
  TETRAS-ADL change from baseline >0 to 1 point improvement: subjects, number (%): 2 (5.4%)
  TETRAS-ADL change from baseline >0 to 1 point worsening: subjects, number (%): 3 (8.1%)
  TETRAS-ADL change from baseline >1 to 2.5 point improvement: subjects, number (%): 3 (8.1%)
  TETRAS-ADL change from baseline >1 to 2.5 point worsening: subjects, number (%): 3 (8.1%)
  TETRAS-ADL change from baseline >2.5 to 5 point improvement: subjects, number (%): 7 (18.9%)
  TETRAS-ADL change from baseline >2.5 to 5 point worsening: subjects, number (%): 3 (8.1%)
  TETRAS-ADL change from baseline >5 to 10 point improvement: subjects, number (%): 6 (16.2)
  TETRAS-ADL change from baseline >5 to 10 point worsening: subjects, number (%): 0
  TETRAS-ADL change from baseline >10 point improvement: subjects, number (%): 5 (13.5%)
  TETRAS-ADL change from baseline >10 point worsening: subjects, number (%): 0
[1]; [4]
  TETRAS-ADL score (change from baseline), Mean (SD): −3.7 (4.21)
  TETRAS-ADL score (change from baseline), Median: −2.0
[1]; [5]
  TETRAS-ADL score (change from baseline), Mean (SD): −4.4 (8.10)
  TETRAS-ADL score (change from baseline), Median (minimum, maximum): −1.0 (−24, 3)
[1]; [6]
  TETRAS-ADL score (change from baseline), Mean (SD): −3.3 (4.27)
  TETRAS-ADL score (change from baseline), Median: −4.0
[1]; [7]
  TETRAS-ADL score (change from baseline), Mean (SD): −1.6 (3.84)
  TETRAS-ADL score (change from baseline), Median (minimum, maximum): −1.0 (−7, 3)
[2]; Day 15
  CGI-I score 0-no change: subjects, number (%): 14 (36%)
  CGI-I score 1-minimally improved: subjects, number (%): 19 (49%)
  CGI-I score 2-much improved: subjects, number (%): 6 (15%)
  CGI-I score 3-very much improved: subjects, number (%): 0
  CGI-I score −1-minimally worse: subjects, number (%): 0
  CGI-I score −2-much worse: subjects, number (%): 0
  CGI-I score −3-very much worse: subjects, number (%): 0
  responders: improvement by CGI-I, %: (64.1%)
[2]; Day 15, N = 39
  CGI-I category 0 No change, number (%) of patients: 14 (36%)
  CGI-I category 1 Minimally improved, number (%) of patients: 19 (49%)
  CGI-I category 2 Much improved, number (%) of patients: 6 (15%)
  CGI-I category 3 Very much improved, number (%) of patients: 0
  CGI-I category −1 Minimally worse, number (%) of patients: 0
  CGI-I category −2 Much worse, number (%) of patients: 0
  CGI-I category −3 Very much worse, number (%) of patients: 0
[2]; Day 28
  CGI-I score 0-no change: subjects, number (%): 13 (33%)
  CGI-I score 1-minimally improved: subjects, number (%): 15 (38%)
  CGI-I score 2-much improved: subjects, number (%): 9 (23%)
  CGI-I score 3-very much improved: subjects, number (%): 0
  CGI-I score (rescaled −3 to 3), Mean (SD): 1 (0.8)
  CGI-I score (rescaled −3 to 3), Median (minimum, maximum): 1 (0, 2)
  CGI-I score −1-minimally worse: subjects, number (%): 0
  CGI-I score −2-much worse: subjects, number (%): 0
  CGI-I score −3-very much worse: subjects, number (%): 0
  responders: improvement by CGI-I, %: (64.9%)
[2]; Day 28, total 37
  CGI-I: No Change, number of subjects: 13
  CGI-I: Worsened, number of subjects: 0
[2]; Day 28, ANCOVA
  CGI-I score, LS mean (SE): 1.0 (0.13)
  CGI-I score, LS mean difference from placebo (95% CI): 0.6 (0.3, 0.9)
[2]; Day 28, N = 39
  CGI-I category 0 No change, number (%) of patients: 13 (33%)
  CGI-I category 1 Minimally improved, number (%) of patients: 15 (38%)
  CGI-I category 2 Much improved, number (%) of patients: 9 (23%)
  CGI-I category 3 Very much improved, number (%) of patients: 0
  CGI-I category −1 Minimally worse, number (%) of patients: 0
  CGI-I category −2 Much worse, number (%) of patients: 0
  CGI-I category −3 Very much worse, number (%) of patients: 0
[3]
  Emax, change from baseline in TETRAS-PS (Hill equation): approximately −4.1
